Test results taken from patent publication US10098880B2 (CELLWORKS GROUP INC., priority 2014, dated 2018).

Tests used:
[1] = cited from earlier work
HMG-CoA reductase = target: T1, HMG-CoA reductase (Homo sapiens, UniProt P04035); conditions: in vitro; cited from earlier work
T1 sequence (P04035 1-888): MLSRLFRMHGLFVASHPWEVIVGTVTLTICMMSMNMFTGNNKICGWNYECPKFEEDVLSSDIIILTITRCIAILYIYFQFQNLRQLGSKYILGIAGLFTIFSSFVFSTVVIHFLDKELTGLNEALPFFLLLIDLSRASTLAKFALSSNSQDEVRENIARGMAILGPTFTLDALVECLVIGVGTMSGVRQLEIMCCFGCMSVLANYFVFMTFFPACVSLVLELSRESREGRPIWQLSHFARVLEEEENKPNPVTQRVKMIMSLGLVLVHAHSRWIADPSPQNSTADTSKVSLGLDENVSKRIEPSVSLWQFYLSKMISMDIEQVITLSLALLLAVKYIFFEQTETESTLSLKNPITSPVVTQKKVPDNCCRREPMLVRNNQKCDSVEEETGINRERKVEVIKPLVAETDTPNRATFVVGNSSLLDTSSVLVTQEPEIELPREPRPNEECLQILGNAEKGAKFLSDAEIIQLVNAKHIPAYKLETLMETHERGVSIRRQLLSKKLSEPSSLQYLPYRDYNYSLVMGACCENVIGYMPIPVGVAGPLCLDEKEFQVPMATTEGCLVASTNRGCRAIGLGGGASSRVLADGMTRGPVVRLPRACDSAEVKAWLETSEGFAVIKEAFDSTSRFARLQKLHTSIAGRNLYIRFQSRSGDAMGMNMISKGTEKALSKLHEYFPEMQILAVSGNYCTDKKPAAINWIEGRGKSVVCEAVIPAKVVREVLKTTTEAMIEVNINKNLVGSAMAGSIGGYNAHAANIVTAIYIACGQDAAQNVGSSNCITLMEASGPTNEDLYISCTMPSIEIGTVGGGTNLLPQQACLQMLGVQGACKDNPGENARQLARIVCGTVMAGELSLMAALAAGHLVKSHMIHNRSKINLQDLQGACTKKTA

AKT = AKT (Homo sapiens, UniProt P31749); conditions: reported, PMID 23454896; inhibition of AKT phosphorylation at Ser473; cited from earlier work
[2] = test system: U251 cell line (PTEN, TP53 and CDKN2A mutated); assay: In-vitro relative growth assay (CellTiter 96 Aqueous One), U251 cell line; assay type: cell-based, human; conditions: FIG. 4A: Nelfinavir 5 μM, Metformin 0.5 mM, Rosuvastatin 12.5 μM, individually or combined, about 71 hours
Method: (§1) U251 cell line is procured from Sigma-Aldrich (Catalog number: 09063001). The U87 human cell line is procured from ATCC (American Type Culture Collection, Manassas, Va., ATCC® HTB-14TM). LN229 cell line is procured from ATCC (American Type Culture Collection, Manassas, Va., […]). […] 100 μl/well of the diluted sample is added to assay plate containing resuspended cells. […] The assay plate is incubated for about 71 hours followed by addition of about 20 μl of Promega Substrate CellTiter 96 Aqueous One Solution Reagent to each well. It is incubated at 37° C. The absorbance of the sample is read at about 490 nm.

[3] = cited from earlier work; remark: listed apart in the source
[4] = test system: U87 cell line (PTEN and CDKN2A mutated); assay: In-vitro relative growth assay (CellTiter 96 Aqueous One), U87 cell line; assay type: cell-based, human; conditions: FIG. 4A: Nelfinavir 5 μM, Metformin 0.5 mM, Rosuvastatin 12.5 μM, individually or combined, about 71 hours
Method: [table] U251 cell line is procured from Sigma-Aldrich (Catalog number: 09063001). The U87 human cell line is procured from ATCC (American Type Culture Collection, Manassas, Va., ATCC® HTB-14TM). LN229 cell line is procured from ATCC (American Type Culture Collection, Manassas, Va., […]). […] DMSO, Digitoxin and drugs (Nelfinavir, Metformin and Rosuvastatin individually and in combination) are serial diluted in an assay media. 100 μl/well of the diluted sample is added to assay plate containing resuspended cells. […] The assay plate is incubated for about 71 hours followed by addition of about 20 μl of Promega Substrate CellTiter 96 Aqueous One Solution Reagent to each well. It is incubated at 37° C. The absorbance of the sample is read at about 490 nm.

[5] = test system: LN229 cell line (TP53 and CDKN2A mutated); assay: In-vitro relative growth assay (CellTiter 96 Aqueous One), LN229 cell line; assay type: cell-based, human; conditions: FIG. 4A: Nelfinavir 5 μM, Metformin 0.5 mM, Rosuvastatin 12.5 μM, individually or combined, about 71 hours
Method: as §1

[6] = cited from earlier work; remark: listed apart in the source
[7] = oral 750 mg dose containing 14C-nelfinavir

Chain of AKT (P31749 whole entry): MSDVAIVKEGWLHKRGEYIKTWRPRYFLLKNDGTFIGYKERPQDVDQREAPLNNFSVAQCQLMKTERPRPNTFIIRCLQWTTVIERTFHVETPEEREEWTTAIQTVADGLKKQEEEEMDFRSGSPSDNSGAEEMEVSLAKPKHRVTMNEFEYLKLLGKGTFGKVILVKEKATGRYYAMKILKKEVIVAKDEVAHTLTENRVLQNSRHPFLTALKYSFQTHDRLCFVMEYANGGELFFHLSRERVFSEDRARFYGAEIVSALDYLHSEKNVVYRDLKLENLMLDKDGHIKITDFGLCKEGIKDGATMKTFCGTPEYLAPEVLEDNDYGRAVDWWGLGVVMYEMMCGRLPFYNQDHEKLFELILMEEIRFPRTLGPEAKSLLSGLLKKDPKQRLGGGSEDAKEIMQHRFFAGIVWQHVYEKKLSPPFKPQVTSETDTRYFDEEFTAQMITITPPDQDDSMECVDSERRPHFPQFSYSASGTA

## CN(C)C(=N)N=C(N)N [Metformin, 1-carbamimidamido-N,N-dimethyl-methanimidamide]
[1]; after oral administration
  time of peak action: 3 h
[1]; in vivo
  Duration of action: 8 to 12 h
  time over which absorbed: 6 h
[1]; those with healthy renal function
  drug eliminated in 24 hours: Approximately 90%

## CC(C)c1nc(NS(C)(=O)=O)nc(-c2ccc(F)cc2)c1/C=C/[C@@H](O)C[C@@H](O)CC(=O)O [N-desmethylrosuvastatin]
HMG-CoA reductase
  pharmacological activity relative to parent compound: approximately 50%

## Cc1c(O)cccc1C(=O)N[C@@H](CSc1ccccc1)[C@H](O)CN1C[C@H]2CCCC[C@H]2C[C@H]1C(=O)NC(C)(C)C [Nelfinavir, (3S,4aS,8aS)-N-tert-butyl-2-[(2R,3R)-2-hydroxy-3-[(3-hydroxy-2-methylbenzoyl)amino]-4-phenylsulfanylbutyl]-3,4,4a,5,6,7,8,8a-octahydro-1H-isoquinoline-3-carboxamide]
AKT
  concentration causing AKT inhibition: 20 µM
[2]
  reduction in relative growth: do not show much efficacy
[3]; in humans, hepatic CYP450
  predominant enzymes that metabolize nelfinavir: CYP3A and CYP2C19
[3]; in vivo
  Half-life (terminal half-life in plasma): 3.5 to 5 h
[3]; [7]
  dose recovered in the feces: 87%
  dose recovered in urine: 1-2%
  fecal radioactivity as oxidative metabolites: 78%
  fecal radioactivity as unchanged nelfinavir: 22%
[3]; oral administration
  Absorption: Well absorbed
[4]
  reduction in relative growth: do not show much efficacy
[5]
  reduction in relative growth: do not show much efficacy

## CC(C)c1nc(N(C)S(C)(=O)=O)nc(-c2ccc(F)cc2)c1/C=C/[C@@H](O)C[C@@H](O)CC(=O)O [Rosuvastatin, (E,3R,5S)-7-[4-(4-fluorophenyl)-2-[methyl(methylsulfonyl)amino]-6-propan-2-ylpyrimidin-5-yl]-3,5-dihydroxyhept-6-enoic acid]
[2]
  reduction in relative growth: do not show much efficacy
[4]
  reduction in relative growth: do not show much efficacy
[6]; after an intravenous dose
  total body clearance by the hepatic route: 72%
  total body clearance via the renal route: approximately 28%
[6]; following oral administration
  excreted in the feces (rosuvastatin and its metabolites): 90%
[6]; in vivo
  Bioavailability: approximately 20%
  Half-life: 19 h
  excreted as metabolite: ~10%
  increase of AUC by inhibitors of CYP2C9: less than 2 fold
  radiolabeled dose recovered as metabolite: approximately 10%
  share of the pharmacologic action accounted for by parent: greater than 90%
[5]
  reduction in relative growth: do not show much efficacy
